Like-named read-outs stand apart in the source and are kept apart here.

One data set has as its system HRV serotype 10. The experiment in a line: Antirhinoviral H1-HeLa cell culture assay (XTT), HRV-10. The data set is classed as cell-based, human rhinovirus. As to conditions: H1-HeLa cells. On the procedure:
(§1) Antirhinoviral H1-HeLa Cell Culture Assay
(§2) In this cell protection assay, the ability of compounds to protect cells against HRV infection was measured by the XTT dye reduction method, which is described in Weislow et al., J. Natl. Cancer Inst. 1989, vol. 81, 577-586.
(§3) H1-HeLa cells were infected with HRV-14 at a multiplicity of infection (m.o.i.) of 0.13 (virus particles/cell) or mock-infected with medium only. Infected or mock-infected cells were resuspended at 8×10^5 cells per mL, and incubated with appropriate concentrations of the compounds to be tested. Two days later, XTT/PMS was added to test plates and the amount of formazan produced was quantified spectrophotometrically at 450/650 nm. The EC50 value was calculated as the concentration of compound that increased the percentage of formazan production in compound-treated, virus-infected cells to 50% of that produced by compound-free, mock-infected cells. The 50% cytotoxic dose (CC50) was calculated as the concentration of compound that decreased the percentage of formazan produced in compound-treated, mock-infected cells to 50% of that produced by compound-free, mock-infected cells. The therapeutic index (TI) was calculated by dividing the CC50 value by the EC50 value.
(§4) All strains of human rhinovirus (HRV) for use in this assay were purchased from American Type Culture Collection (ATCC), except for HRV serotype-14 (produced from the infectious cDNA clone constructed by Dr. Robert Rueckert, Institute for Molecular Virology, University of Wisconsin, Madison, Wis.). HRV stocks were propagated and viral assays were performed in H1-HeLa cells (ATCC). Cells were grown in minimal essential medium with 10% fetal bovine serum, available from Life Technologies (Gaithersburg, Md.).
(§5) The compounds were tested against control compounds WIN 51711, WIN 52084, and WIN 54954 (obtained from Sterling-Winthrop Pharmaceuticals), Pirodavir (obtained from Janssen Pharmaceuticals), and Pleconaril (prepared according to the method described in Diana et al., J. Med. Chem 1995, vol. 38, 1355). […]

For a further data set, the system named is HRV-14. Nature of the data set: Antirhinoviral H1-HeLa cell culture assay (XTT), HRV-14. The format is cell-based, human rhinovirus. On the procedure: as §1, §2, §3, §4
The compounds were tested against control compounds WIN 51711, WIN 52084, and WIN 54954 (obtained from Sterling-Winthrop Pharmaceuticals), Pirodavir (obtained from Janssen Pharmaceuticals), and Pleconaril (prepared according to the method described in Diana et al., J. Med. Chem 1995, vol. 38, 1355). Antiviral data obtained for the test compounds are shown in Tables 1 and 3, where all data are for HRV serotype-14 unless otherwise noted in parentheses.
A general note: Formazan colour is commonly taken as a measure of viable cells.

The test system of another data set is HRV serotype 1A. The experiment in a line: Antirhinoviral H1-HeLa cell culture assay (XTT), HRV-1A. The format is cell-based, human rhinovirus. As to conditions: H1-HeLa cells. On the procedure: as §1, §2, §3, §4, §5
Data set [1] can be described thus: Cytotoxicity in uninfected H1-HeLa cells (anticoxsackieviral assay, XTT). The data set is classed as cell-based. As to conditions: human; 50% cytotoxic dose, uninfected H1-HeLa cells (Table 4). The protocol: Coxsackievirus types A-21 (CAV-21) and B3 (CVB-3) were purchased from American Type Culture Collection (ATCC, Rockville, Md.). Virus stocks were propagated and antiviral assays were performed in H1-HeLa cells (ATCC). Cells were grown in minimal essential medium with 10% fetal bovine serum (Life Technologies, Gaithersburg, Md.).
The ability of compounds to protect cells against either CAV-21 or CVB-3 infection was measured by the XTT dye reduction method. This method is described in Weislow et al., J. Natl. Cancer Inst. 1989, vol. 81, 577-586. H1-HeLa cells were infected with CAV-21 or CVB-3 at a multiplicity of infection (m.o.i.) of 0.025 or 0.075, respectively, or mock-infected with medium only. H1-HeLa cells were plated at 4×10^4 cells per well in a 96-well plate and incubated with appropriate concentrations of the test compound. One day (CVB-3) or two days (CAV-21) later, XTT/PMS was added to test plates and the amount of formazan produced was quantified spectrophotometrically at 450/650 nm. The EC50 was calculated as the concentration of compound that increased the formazan production in compound-treated, virus-infected cells to 50% of that produced by compound-free, uninfected cells. The 50% cytotoxic dose (CC50) was calculated as the concentration of compound that decreased formazan production in compound-treated, uninfected cells to 50% of that produced in compound-free, uninfected cells. The therapeutic index (TI) was calculated by dividing the CC50 by the EC50.

A short description of data set [2]: Cytotoxicity in mock-infected H1-HeLa cells (antirhinoviral assay, XTT). The format is cell-based. As to conditions: human, 50% cytotoxic dose. The protocol:
as §3, §4

Data set [3] is described as follows: Cytotoxicity in uninfected MRC-5 cells (anti-echoviral/-enteroviral assay, XTT). The format is cell-based. The following applies: human, 50% cytotoxic dose. The protocol:
Echovirus type 11 (EV 11) and enterovirus type 70 (EV 70) were purchased from ATCC (Rockville, Md.). Virus stocks were propagated and antiviral assays were performed in MRC-5 cells (ATCC). Cells were grown in minimal essential medium with 10% fetal bovine serum (Life Technologies, Gaithersburg, Md.).
The ability of compounds to protect cells against either EV 11 or EV 70 infection was measured by the XTT dye reduction method (Weislow et al., J. Natl. Cancer Inst. 1989, vol. 81, 577-586). MRC-5 cells were infected with EV 11 or EV 70 at an m.o.i. of 0.003 or 0.004, respectively, or mock-infected with medium only. Infected or uninfected cells were added at 1×10^4 cells per well and incubated with appropriate concentrations of compound. Four days later, XTT/PMS was added to test plates, and the amount of formazan produced was quantified spectrophotometrically at 450/650 nm. The EC50 was calculated as the concentration of compound that increased the formazan production in compound-treated, virus-infected cells to 50% of that produced by compound-free, uninfected cells. The 50% cytotoxic dose (CC50) was calculated as the concentration of compound that decreased formazan production in compound-treated, uninfected cells to 50% of that produced in compound-free, uninfected cells. The therapeutic index (TI) was calculated by dividing the CC50 by the EC50.

The mark [4] stands for this setting: HRV serotype-14, H1-HeLa cells (Table 1), read-out: Cell Protection EC50.
The mark [5] stands for this setting: HRV serotype-14, H1-HeLa cells (Table 3), read-out: EC50.

With `CCOC(=O)/C=C/[C@H](CCC(N)=O)NC(=O)[C@H](Cc1ccc(C)cc1)NC(=O)[C@@H](NC(=O)C1SCCS1)C(C)(C)C` [(A-15)], the EC50 with HRV serotype 10 is 2.7 µM; in the data set with HRV-14 (setting [4]), 220 nM; in the data set with HRV-14 (setting [5]), 220 nM; with HRV serotype 1A, 7.1 µM.
`CCOC(=O)/C=C/[C@H](CCC(N)=O)NC(=O)[C@H](Cc1ccc(C)cc1)NC(=O)[C@@H](NC(=O)c1ccc[nH]1)C(C)(C)C` [(A-16)]: the EC50 stood at 4.5 µM in the data set on HRV serotype 10, 450 nM with HRV-14 (setting [4]), 450 nM with HRV-14 (setting [5]) and 4.8 µM in the data set with HRV serotype 1A.
Molecule `CCOC(=O)/C=C/[C@H](C[C@@H]1CCNC1=O)NC(=O)[C@@H](CC(=O)[C@@H](NC(=O)c1cc(C)on1)C(C)C)Cc1ccc(F)cc1` [(B-2), Ethyl-3-{(5′-Methylisoxazole-3′-carbonyl)-L-ValΨ(COCH2)-L-(4-F-Phe)-L-((S)-Pyrrol-Ala)}-E-Propenoate] yielded a CC50 in data set [1] above 100 µM. The molecule also had a CC50 at 2 days in data set [2] above 100 µM. Further, in data set [3], the CC50 at 4 days was above 100 µM.

As usually defined, the EC50 is the concentration that produces a half-maximal response. As usually defined, the CC50 is the concentration giving 50% cytotoxicity. Low values mean harm at low concentration, high ones better tolerance by the cells.
